Assays:
[1] = test system: total aerobes (pooled saliva inoculum); experiment: bacterial time kill assay of CPC mouthrinse formulations; assay type: cell-based; conditions: 30 seconds
[2] = in vitro erosion cycling protocol (citric acid challenge, transverse microradiography); design: species or system human; conditions: for Surface Loss: aqueous solutions of test organophosphates (control: dentifrice slurry 1:3) in pooled human saliva, 1% citric acid 10 min, 4 treatments/day, 5 days, depth of total mineral loss by TMR; for % reduction vs. regular F control: reduction in surface mineral loss relative to Fluoride toothpaste (1100 ppm F), aqueous solutions
Procedure: The effectiveness of compositions of the present invention containing an organophosphate was evaluated according to the following in vitro erosion cycling protocol.
Tooth (dentin or enamel) specimens are prepared by cutting 3 mm-4 mm cores from extracted, human teeth using a diamond core drill. The teeth, collected by local surgeons, are stored until use in a 5% Thymol solution maintained at room temperature. Specimens are mounted on lucite rods with a dental acrylic (Dura Base, Reliance Mfg. Co.) covering all sides except the surface. Course polishing with 600-grit silicon carbide-water slurry is used to remove approximately 50 microns of the outer specimen surface to ensure homogeneity among specimens. Specimens are then polished with gamma alumina (Buehler No. 3, B Gamma Micropolish Alumina) to a mirror-like finish.
Approximately ⅔ of the surface of each specimen is then covered with an acid resistant nail polish (placed in a mesial-distal fashion), leaving the center portion exposed as a treatment window. Covered portions remain covered with the acid-resistant nail polish throughout the experiment, serving as the control (untreated) areas for later microradiographic analysis. Specimens are randomly assigned to one of four treatment groups (4 specimens/group).
Each group of specimens is placed in 20 ml of fresh, pooled human saliva for at least one hour to form an initial layer of pellicle on the specimen surfaces prior to first day of treatment. To begin the treatment phase, aqueous solutions of the test organophosphates and dentifrice slurry (1:3) of the control fluoride toothpaste are prepared in fresh, pooled human saliva. Each treatment cycle consists of: dentifrice slurry (2 min)→rinse in deionized distilled H2O→saliva (1 hour)→erosion challenge (10 min)→rinse in ddiH2O→saliva. There are 4 treatments per day for a total of five treatment days. Dentifrice treatments consist of immersing the specimens into the dentifrice slurry for two minutes while specimens rotate at 75 rpm. The erosion challenge consists of soaking each treatment group in 12 ml of 1% Citric acid (at room temperature). At any time specimens are not in treatment, they remain in 20 ml of pooled, human saliva (stirred). The saliva is refreshed 3×/day. At night, each group of specimens remains immersed in saliva (stirred at room temperature).
After 5 days of treatment, thin cross-sections (80-120 μm thick) of each specimen are removed for assessment using standardized transverse microradiography (TMR) techniques. The exposed, treated area of each specimen is assessed with respect to complete mineral loss (erosion). Results with simple aqueous solutions of various alkyl phosphate compounds are presented in Table 1 as depth (in microns) of total mineral loss from the original specimen surface using the covered (untreated) areas as anatomical reference points. For comparison, percent reduction in surface mineral loss is calculated relative to water or fluoride containing compositions.

[3] = compatibility of organophosphate additives with stannous fluoride solutions: visual inspection and soluble tin in supernatant; assay type: physicochemical
Procedure: Aqueous formulations of polyvalent metal antibacterial agents were prepared and evaluated for clarity, chemical content and performance when mixed with various organophosphate additives as described above. The compositions comprise stannous fluoride as an example of polyvalent metal cation in combination with sodium gluconate or sodium tripolyphosphate as stabilizer and organophosphate additives. The compositions also contained zinc. […] Following addition of additives, the solutions were immediately inspected for any visual changes and then analyzed for soluble tin in the supernatants after centrifugation.

[4] = mouthrinse: organophosphate additive 0.05%, CPC 0.05%
[5] = mouthrinse: organophosphate additive 0.1%, CPC 0.1%
[6] = stannous fluoride/sodium gluconate solution, additive 1.0%
[7] = stannous fluoride/sodium tripolyphosphate solution, additive 1.0%
[8] = 0.454% stannous fluoride/3.0% sodium tripolyphosphate solution, additive 2.0%
[9] = stannous fluoride/sodium gluconate solution, additive 0.5%
[10] = 0.454% stannous fluoride/0.6% sodium gluconate solution, additive 2.0%
[11] = stannous fluoride/sodium gluconate solution, additive 0.2%
[12] = stannous fluoride/sodium tripolyphosphate solution, additive 0.08%

Substance: Laureth 3 phosphate [Foamphos L-3]
- Log Reduction vs. water control [1, 4]: 2.04
- Log Reduction vs. water control [1, 5]: 2.05
- Surface Loss [2]: 13.25 μm
- % reduction vs. regular F control [2]: 60.74%
- Soluble Tin [3, 6]: 1371 ppm
- Visual Inspection [3, 6]: Slight precipitate
- Soluble Tin [3, 7]: 3496 ppm
- Visual Inspection [3, 7]: Slight hazy

Substance: Laureth-1 phosphate [MAP L210]
- Surface Loss [2]: 25.75 μm
- % reduction vs. regular F control [2]: 23.70%
- Soluble Tin [3, 8]: 1888 ppm
- Visual Inspection [3, 8]: Slight precipitate
- Soluble Tin [3, 9]: 1419 ppm
- Visual Inspection [3, 9]: Slight precipitate

Substance: Laureth-9 phosphate [Foamphos L-9]
- Log Reduction vs. water control [1, 4]: 2.76
- Log Reduction vs. water control ([1]; mouthrinse: organophosphate additive 0.1%, CPC 0.05%): 2.76
- Log Reduction vs. water control [1, 5]: 2.76
- clarity of stannous fluoride solutions (in words) [3]: clear solutions
- soluble stannous (in words) [3]: high levels of soluble stannous
- Soluble Tin [3, 10]: 3145 ppm
- Visual Inspection [3, 10]: Slight hazy
- Soluble Tin [3, 8]: 2511 ppm
- Visual Inspection [3, 8]: Clear

Substance: PPG5 ceteareth-10 phosphate [CrodaphosSG]
- Surface Loss [2]: 18.50 μm
- % reduction vs. regular F control [2]: 45.19%

Substance: Potassium C12/13 phosphate [MAP 230K]
- Log Reduction vs. water control ([1]; mouthrinse: organophosphate additive 0.0335%, CPC 0.0165%): −0.05
- Log Reduction vs. water control ([1]; mouthrinse: organophosphate additive 0.04%, CPC 0.01%): −0.01
- Surface Loss [2]: 10.50 μm
- % reduction vs. regular F control [2]: 68.89%
- Soluble Tin [3, 11]: 2015 ppm
- Visual Inspection [3, 11]: Slight precipitate
- Soluble Tin [3, 12]: 2814 ppm
- Visual Inspection [3, 12]: Slight precipitate

Substance: Sodium diLaureth-10 phosphate [DLP-10]
- Soluble Tin [3, 10]: 2886 ppm
- Visual Inspection [3, 10]: Clear

Substance: Trilaureth-4 phosphate [Hostaphat KL 340D]
- Surface Loss [2]: 22.50 μm
- % reduction vs. regular F control [2]: 33.33%

Reference: patent US9161895B1, “Compositions and methods for improving overall tooth health and appearance” (The Procter & Gamble Company, priority 2008, dated 2015)
